System: keratinocytes
Assay: Antioxidant effect on keratinocytes: ROS by flow cytometry with CM-H2DCFDA after solar simulator irradiation
Format: cell-based
Details: 2nd experiment: incubation 48 h, 0.5% w/v in the culture medium
Description: The assessment of the antioxidant effect of the compositions C3 and C4 according to the invention has been based on the dosage of the amount of reactive oxygen species (ROS) produced in the medium by flow cytometry, after setting the cells treated with these compositions in presence with the oxidative stress indicator CM-H2DCFDA (5-(and-6)-chlorométhyl-2′,7′-dichlorodihydrofluorescein diacetate, acetyl ester) (Invitrogen®). By cleavage of its acetate groups with esterases and its intracellular oxidation by the ROS, this non-fluorescent indicator is converted into highly-fluorescent dichlorofluorescein 2′,7′ (DCF). Thus, the measurement of the fluorescence intensity allows deducing the amount of DCF, and consequently of ROS, in the cell medium. […]
Afterwards, the cells have been detached by tryptinisation by means of trypsin at 0.0025% and EDTA at 0.01% for 10 min at 37° C., neutralised by fetal calf serum at 10% and separated from the medium by centrifugation. […] Afterwards, the fluorescence has been read by a flow cytometer Accuri® 6.
The obtained results, expressed in % of mean fluorescence intensity (MFI) with respect to the non-irradiated (and without C4) control condition, are shown in FIG. 11. […]

SMILES: Cc1c(C)c2c(c(C)c1O)CC[C@@](C)(CCC[C@H](C)CCC[C@H](C)CCCC(C)C)O2 [α-tocopherol]
- production of ROS (% of mean fluorescence intensity vs non-irradiated control): strongly inhibits the production of ROS
